Values quoted from earlier work as cited in article PMC5108082, “Pharmacokinetics, toxicity, and cytochrome P450 modulatory activity of plumbagin” (BMC Pharmacology & Toxicology, 2016).

Test system: K1 chloroquine-resistant P. falciparum
Conditions: K1 clone; read-out: mean IC50; cited from earlier work

**Q.** For C[C@H]1[C@H](OC(=O)CCC(=O)O)O[C@@H]2O[C@@]3(C)CC[C@H]4[C@H](C)CC[C@@H]1[C@@]24OO3 [artesunate], which IC50 is on record?
**A.** The IC50 was 1.5 nM.

**Q.** With CCN(CC)CCCC(C)Nc1ccnc2cc(Cl)ccc12 (centres unmarked) [chloroquine] as the molecule, how does the IC50 read?
**A.** Its IC50 is 130 nM.

**Q.** Which IC50 does the source give for OC(c1cc(C(F)(F)F)nc2c(C(F)(F)F)cccc12)C1CCCCN1 (centres unmarked) [mefloquine] here?
**A.** Its IC50 is 12 nM.

**Q.** With C=C[C@H]1C[N@@]2CC[C@H]1C[C@H]2[C@H](O)c1ccnc2ccc(OC)cc12 [quinine] as the molecule, how does the IC50 read?
**A.** Its IC50 is 133 nM.

Test system: 3D7 chloroquine-sensitive P. falciparum
Conditions: 3D7 clone; read-out: mean IC50; cited from earlier work

**Q.** Which IC50 does the source give for C[C@H]1[C@H](OC(=O)CCC(=O)O)O[C@@H]2O[C@@]3(C)CC[C@H]4[C@H](C)CC[C@@H]1[C@@]24OO3 [artesunate] here?
**A.** Its IC50 is 2 nM.

**Q.** Which IC50 does the source give for CCN(CC)CCCC(C)Nc1ccnc2cc(Cl)ccc12 (centres unmarked) [chloroquine] here?
**A.** The IC50 was 8 nM.

**Q.** For OC(c1cc(C(F)(F)F)nc2c(C(F)(F)F)cccc12)C1CCCCN1 (centres unmarked) [mefloquine], which IC50 is on record?
**A.** Its IC50 is 10 nM.

**Q.** Which IC50 does the source give for C=C[C@H]1C[N@@]2CC[C@H]1C[C@H]2[C@H](O)c1ccnc2ccc(OC)cc12 [quinine] here?
**A.** Its IC50 is 52 nM.
